In PubChem BioAssay AID1963848 (Molecular Pharmacology Branch, DTP, NCI, 2024) one finds IC50 and viability, T/C data, which are given here for five molecules.

Values joined by “and” are separate entries in the source; they are usually repeats but may differ in a detail not shown here. Equal values may be shown once. Where only a bound is given, the exact number is not on record here.

This assay concerns 379773-124-R-J2-PDC spheroid viability. The assay can be described thus: Anticancer human tumor 379773-124-R-J2-PDC patient-derived endometrial carcinoma cell line growth inhibition [POLQ]. The following applies: spheroids with HUVEC and MSC; for viability, T/C: stronger effect = lower value. The essentials: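 Complex spheroid viability model combining PDC tumour cells with endothelial (HUVEC) and MSC stromal cells. Novobiocin, ART-558 or RP6685 were tested singly and in combination with standard and investigational anticancer drugs. Each was titrated in half-log steps from near clinical Cmax, or from 10 microM where Cmax was unknown.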

The mark [1] stands for this setting: curve of first compound, second compound 0.0316 µM.
Where [2] appears, read: curve of first compound, second compound 0.1 µM.
The mark [3] stands for this setting: curve of first compound, second compound 0.316 µM.
The mark [4] stands for this setting: curve of first compound, second compound 1 µM.
[5] abbreviates: curve of first compound, second compound 3.16 µM.
Where [6] appears, read: curve of first compound, second compound 10 µM.

One may read the IC50 as the point on the concentration scale where inhibition reaches its midpoint. The term viability, T/C denotes the result in the treated group divided by that in the control group, in per cent.
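Further: spheroids exposed to drugs for seven days before readout.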
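Wherever viability, T/C is given: percent viability relative to DMSO vehicle control taken as 100%.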

For `CC(=O)O[C@H]1C(=O)[C@@]2(C)[C@H]([C@H](OC(=O)c3ccccc3)[C@]3(O)C[C@H](OC(=O)[C@H](O)[C@@H](NC(=O)c4ccccc4)c4ccccc4)C(C)=C1C3(C)C)[C@]1(OC(C)=O)CO[C@@H]1C[C@@H]2O` + Nc1ccc(C#CCN(C(=O)Cc2ncc(C(F)(F)F)cc2C(F)(F)F)c2ccc(F)cc2)nn1, the 50% inhibitory concentration (IC50) is < 9.49 nM under setting [1]; < 9.49 nM under setting [2]; < 9.49 nM under setting [3]; < 9.49 nM under setting [4]; < 9.49 nM under setting [5]; < 9.49 nM under setting [6]. Besides, the viability, T/C was 22.9% (second compound 0.0316 µM, first compound 0.00949 µM); 8.34% (second compound 0.0316 µM, first compound 0.03 µM); 8.59% (second compound 0.0316 µM, first compound 0.0949 µM); 12% (second compound 0.0316 µM, first compound 0.3 µM); 7.39% (second compound 0.0316 µM, first compound 0.949 µM); 10.1% (second compound 0.0316 µM, first compound 3 µM). For the same molecule, the viability, T/C reads like this: (second compound 0.1 µM, first compound 0.00949 µM) 19%; (second compound 0.1 µM, first compound 0.03 µM) 11.5%; (second compound 0.1 µM, first compound 0.0949 µM) 8.46%; (second compound 0.1 µM, first compound 0.3 µM) 9.83%; (second compound 0.1 µM, first compound 0.949 µM) 9.69%; (second compound 0.1 µM, first compound 3 µM) 8.71%. Further, the viability, T/C by setting is: (second compound 0.316 µM, first compound 0.00949 µM) 23.7%; (second compound 0.316 µM, first compound 0.03 µM) 9.89%; (second compound 0.316 µM, first compound 0.0949 µM) 10.2%; (second compound 0.316 µM, first compound 0.3 µM) 12.1%; (second compound 0.316 µM, first compound 0.949 µM) 10.1%; (second compound 0.316 µM, first compound 3 µM) 9.75%. Further, the viability, T/C was 28.3% (second compound 1 µM, first compound 0.00949 µM); 10.3% (second compound 1 µM, first compound 0.03 µM); 10.1% (second compound 1 µM, first compound 0.0949 µM); 9.22% (second compound 1 µM, first compound 0.3 µM); 10.3% (second compound 1 µM, first compound 0.949 µM); 8.87% (second compound 1 µM, first compound 3 µM). In addition, the viability, T/C is 23.4% (second compound 3.16 µM, first compound 0.00949 µM); 9.86% (second compound 3.16 µM, first compound 0.03 µM); 9.86% (second compound 3.16 µM, first compound 0.0949 µM); 10.8% (second compound 3.16 µM, first compound 0.3 µM); 11% (second compound 3.16 µM, first compound 0.949 µM); 9.15% (second compound 3.16 µM, first compound 3 µM). Further, the viability, T/C was 25.1% (second compound 10 µM, first compound 0.00949 µM); 10.9% (second compound 10 µM, first compound 0.03 µM); 9.07% (second compound 10 µM, first compound 0.0949 µM); 10.1% (second compound 10 µM, first compound 0.3 µM); 8.38% (second compound 10 µM, first compound 0.949 µM); 8.52% (second compound 10 µM, first compound 3 µM).

On to `COc1cccc2c1C(=O)c1c(O)c3c(c(O)c1C2=O)CC(O)(C(=O)CO)CC3OC1CC(N)C(O)C(C)O1` (stereo not drawn), for which the viability, T/C was 78.1% and 95.3% and 81.8% (compound 0.0316 µM); 25% and 40.3% and 29.4% (compound 0.1 µM); 7.16% and 12.4% and 5.32% (compound 0.316 µM); 7.82% and 10.6% and 5.98% (compound 1 µM); 1.99% and 2.49% and 0.93% (compound 3.16 µM); 0.82% and 0.3% and 0.62% (compound 10 µM). Under “curve of compound”, the IC50 was 58.1 nM and 80.7 nM and 63.6 nM.

In the case of `O=C(Nc1ccc(O)c(NS(=O)(=O)c2ccc(F)cc2)c1)c1ccc(-c2ccccc2)cc1` + Cc1cccc(N(C)C(=O)C2C(O)CCN2c2nc(C)cc(C(F)(F)F)c2C#N)c1, the half-maximal inhibitory concentration (IC50) is > 10000 nM under setting [1]; > 10000 nM under setting [2]; > 10000 nM under setting [3]; > 10000 nM under setting [4]; > 10000 nM under setting [5]; > 10000 nM under setting [6]. Also, the viability, T/C is 94.5% (second compound 0.0316 µM, first compound 0.0316 µM); 109% (second compound 0.0316 µM, first compound 0.1 µM); 85.7% (second compound 0.0316 µM, first compound 0.316 µM); 102% (second compound 0.0316 µM, first compound 1 µM); 88.9% (second compound 0.0316 µM, first compound 3.16 µM); 75.3% (second compound 0.0316 µM, first compound 10 µM). Also, the viability, T/C was 88.8% (second compound 0.1 µM, first compound 0.0316 µM); 91.8% (second compound 0.1 µM, first compound 0.1 µM); 87.2% (second compound 0.1 µM, first compound 0.316 µM); 92.4% (second compound 0.1 µM, first compound 1 µM); 86.4% (second compound 0.1 µM, first compound 3.16 µM); 85.8% (second compound 0.1 µM, first compound 10 µM). Moreover, the viability, T/C was 96.7% (second compound 0.316 µM, first compound 0.0316 µM); 104% (second compound 0.316 µM, first compound 0.1 µM); 104% (second compound 0.316 µM, first compound 0.316 µM); 99.6% (second compound 0.316 µM, first compound 1 µM); 92.8% (second compound 0.316 µM, first compound 3.16 µM); 87% (second compound 0.316 µM, first compound 10 µM). Further, the viability, T/C is, setting by setting: (second compound 1 µM, first compound 0.0316 µM) 102%; (second compound 1 µM, first compound 0.1 µM) 86.2%; (second compound 1 µM, first compound 0.316 µM) 90.9%; (second compound 1 µM, first compound 1 µM) 90.2%; (second compound 1 µM, first compound 3.16 µM) 94.5%; (second compound 1 µM, first compound 10 µM) 75.5%. The viability, T/C was 98.3% (second compound 3.16 µM, first compound 0.0316 µM); 90.3% (second compound 3.16 µM, first compound 0.1 µM); 85.4% (second compound 3.16 µM, first compound 0.316 µM); 92.5% (second compound 3.16 µM, first compound 1 µM); 85.4% (second compound 3.16 µM, first compound 3.16 µM); 71% (second compound 3.16 µM, first compound 10 µM). For the same molecule, the viability, T/C (second compound 10 µM, first compound 0.0316 µM) is 84%; the viability, T/C (second compound 10 µM, first compound 0.1 µM) was 93.1%; the viability, T/C (second compound 10 µM, first compound 0.316 µM) was 80.4%; the viability, T/C (second compound 10 µM, first compound 1 µM) was 94%; the viability, T/C (second compound 10 µM, first compound 3.16 µM) was 80.5%; the viability, T/C (second compound 10 µM, first compound 10 µM) was 62.3%.

Turning to `COC1C(OC(N)=O)C(O)C(Oc2ccc3c(O)c(NC(=O)c4ccc(O)c(CC=C(C)C)c4)c(=O)oc3c2C)OC1(C)C` (stereo not drawn), the viability, T/C by setting is: (compound 0.0316 µM) 83.6% [middle of 13 runs]; (compound 0.316 µM) 88.3% [middle of 13 runs]; (compound 3.16 µM) 89.8% [middle of 13 runs]; (compound 10 µM) 81.1% [middle of 13 runs]. The half-maximal inhibitory concentration (IC50) (compound alone, run of 10/31/2023) was > 10000 nM.

Turning to `CC1COCCN1c1cc(-c2ccnn2C)c2ccnc(-c3ccn[nH]3)c2n1` (stereo not drawn), the viability, T/C is 75.5% and 78.8% and 88.4% (compound 0.0316 µM); 53.1% and 47.6% and 54.7% (compound 0.1 µM); 11.6% and 8.88% and 12.7% (compound 0.316 µM); 8.44% and 8.27% and 10.5% (compound 1 µM); 10.4% and 10.8% and 12.3% (compound 3.16 µM); 5.02% and 6.19% and 8.08% (compound 10 µM). The IC50 (curve of compound) is 109 nM and 91.5 nM and 114 nM.
